Laboratory results taken from patent EP2077855B1, “THERAPEUTIC USE OF GBA2” (Yildiz, Dr. med., Yildiz, priority 2006, dated 2008).
Values joined by “and” are separate entries in the source; they are usually repeats but may differ in a detail not shown here. Equal entries are not always repeated. Each block holds one compound with its values, some of them ahead of it.

Legend:
[1] = molecular target: T1, recombinant GBA2 produced in insect cells (His-tagged isolated enzyme) (Homo sapiens, UniProt Q9HCG7); assay: Glucosidase activity of recombinant GBA2 produced in insect cells upon addition of test compounds; format: biochemical; set-up: enzyme activity: unit not given here; conditions: insect cell produced recombinant GBA2, incubation time 15; for mean value: mean counts
T1 construct: His tag; made in house; host or cells: insect cells
T1 sequence (Q9HCG7 1-927): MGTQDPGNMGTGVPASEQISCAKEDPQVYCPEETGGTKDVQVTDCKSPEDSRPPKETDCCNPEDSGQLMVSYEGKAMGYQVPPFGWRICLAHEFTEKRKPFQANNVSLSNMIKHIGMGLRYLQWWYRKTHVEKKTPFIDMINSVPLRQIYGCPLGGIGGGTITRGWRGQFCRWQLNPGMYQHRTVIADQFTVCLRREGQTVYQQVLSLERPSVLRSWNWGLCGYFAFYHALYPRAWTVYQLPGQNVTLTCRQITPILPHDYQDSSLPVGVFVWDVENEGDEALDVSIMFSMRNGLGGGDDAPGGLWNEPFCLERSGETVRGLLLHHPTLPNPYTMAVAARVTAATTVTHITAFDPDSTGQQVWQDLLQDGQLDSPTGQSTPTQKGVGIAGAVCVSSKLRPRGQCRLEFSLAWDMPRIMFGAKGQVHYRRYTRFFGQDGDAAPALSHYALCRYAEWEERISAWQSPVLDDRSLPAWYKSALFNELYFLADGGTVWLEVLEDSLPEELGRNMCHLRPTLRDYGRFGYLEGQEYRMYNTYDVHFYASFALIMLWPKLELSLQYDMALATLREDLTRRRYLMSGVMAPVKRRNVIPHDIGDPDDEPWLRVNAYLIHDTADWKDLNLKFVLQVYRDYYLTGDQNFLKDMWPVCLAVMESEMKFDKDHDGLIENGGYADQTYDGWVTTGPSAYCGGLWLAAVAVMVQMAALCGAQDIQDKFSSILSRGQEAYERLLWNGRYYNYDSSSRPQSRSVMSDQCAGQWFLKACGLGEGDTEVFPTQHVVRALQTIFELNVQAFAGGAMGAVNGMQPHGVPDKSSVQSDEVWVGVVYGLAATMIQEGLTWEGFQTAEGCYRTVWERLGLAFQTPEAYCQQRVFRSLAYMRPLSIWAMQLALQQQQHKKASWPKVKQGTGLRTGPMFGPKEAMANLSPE
Method: (§1) Following the method for measurement of glucosidase activity described in ((Matern, H. et al., J. Biol. Chem. 272:11,261-11,267 (1997), the effect of several test compounds (like bivalent cations and detergents) on the glucosidase activity of recombinant GBA2 produced in insect cells (His-tagged isolated enzyme) and of human liver microsomes was compared. The glucosidase activity of human liver was tested in a microsomal preparation. The tested compounds were: cations including nickel, zinc, cobalt, manganese, calcium, magnesium and barium; detergents including Chaps, Triton X100, taurocholate, Brij58; and phospholipids including lyso-phosphatidylcholine, sphingomyelin, phosphatidylcholine, phosphatidyl-serine, phosphatidylethanolamine and phosphatidylinositol. The enzyme activity results for the recombinant GBA2 were similar or even better than the results for human liver microsomal GBA2 activity. Representative results are summarized in Table 5; the data for the remaining test compounds is not shown. Result: Expression of GBA2 in insect cells leads to recombinant GBA2 whose glucosidase activity is similar to or even higher than the glucosidase activity of human liver microsomes. Table 5: Glucosidase activity of microsomal human liver and GBA2 from insect cells upon addition of sphingomyelin (A, B) and cobalt (C, D). The microsomal preparations were diluted 1:8 with Chaps before use. Measurements were performed in duplicate or triplicate.

[2] = molecular target: T2, human liver microsomal GBA2 activity (Homo sapiens, UniProt Q9HCG7); assay: Glucosidase activity of human liver microsomes upon addition of test compounds; format: biochemical; set-up: enzyme activity: unit not given here; conditions: human liver microsomes diluted 1:8 with Chaps, incubation time 15; for mean value: mean counts
T2 construct: from tissue; host or cells: human liver microsomes
T2 sequence (Q9HCG7 1-927): T1 sequence (Q9HCG7 1-927)
Method: as §1

Compound: [Co+2] [cobalt]
- % of control ([1]; cobalt 0,01mM): 93%
- counts ([1]; cobalt 0,01mM): 157,63 and 157,78
- enzyme activity ([1]; cobalt 0,01mM): 0,1288
- % of control ([1]; cobalt 0,1mM): 115%
- counts ([1]; cobalt 0,1mM): 161,62 and 167,45
- enzyme activity ([1]; cobalt 0,1mM): 0,1604
- % of control ([1]; cobalt 0,05mM): 117%
- counts ([1]; cobalt 0,05mM): 167,53 and 152,62 and 174,62
- enzyme activity ([1]; cobalt 0,05mM): 0,1622
- % of control ([1]; cobalt 0,5mM): 273%
- counts ([1]; cobalt 0,5mM): 206,30 and 217,85
- enzyme activity ([1]; cobalt 0,5mM): 0,3802
- % of control ([1]; cobalt 1mM): 360%
- counts ([1]; cobalt 1mM): 237,74 and 260,51 and 216,07
- enzyme activity ([1]; cobalt 1mM): 0,5005
- % of control ([1]; cobalt 5mM): 97%
- counts ([1]; cobalt 5mM): 208,68 and 319,94
- enzyme activity ([1]; cobalt 5mM): 0,6216
- mean value ([1]; cobalt 0,01mM): 157,71
- mean value ([1]; cobalt 0,1mM): 164,54
- mean value ([1]; cobalt 0,05mM): 164,92
- mean value ([1]; cobalt 0,5mM): 212,08
- mean value ([1]; cobalt 1mM): 238,11
- mean value ([1]; cobalt 5mM): 264,31
- % of control ([2]; cobalt 0,01mM): 87%
- counts ([2]; cobalt 0,01mM): 180,77 and 193,04 and 191,08
- enzyme activity ([2]; cobalt 0,01mM): 1,0961
- % of control ([2]; cobalt 0,05mM): 140%
- counts ([2]; cobalt 0,05mM): 223,91 and 223,75 and 225,71
- enzyme activity ([2]; cobalt 0,05mM): 1,7647
- % of control ([2]; cobalt 0,001mM): 81%
- enzyme activity ([2]; cobalt 0,001mM): 1,0240
- % of control ([2]; cobalt 1mM): 155%
- counts ([2]; cobalt 1mM): 234,69 and 233,72 and 236,26
- enzyme activity ([2]; cobalt 1mM): 1,9576
- % of control ([2]; cobalt 0,005mM): 84%
- counts ([2]; cobalt 0,005mM): 192,98 and 191,68 and 174,52
- enzyme activity ([2]; cobalt 0,005mM): 1,0610
- % of control ([2]; cobalt 5mM): 163%
- counts ([2]; cobalt 5mM): 233,59 and 235,10 and 251,13
- enzyme activity ([2]; cobalt 5mM): 2,0510
- mean value ([2]; cobalt 0,01mM): 188,30
- mean value ([2]; cobalt 0,05mM): 224,46
- mean value ([2]; cobalt 0,001mM): 84,391
- mean value ([2]; cobalt 1mM): 234,89
- mean value ([2]; cobalt 0,005mM): 186,39
- mean value ([2]; cobalt 5mM): 239,941

- mean value ([1]; sphingomyelin 0,3mM): 674,56
- mean value ([1]; sphingomyelin 0,15mM): 591,95
- mean value ([1]; sphingomyelin 0,75mM): 537,54
- mean value ([1]; sphingomyelin 3mM): 652,37
- mean value ([1]; sphingomyelin 6mM): 493,49
- mean value ([1]; sphingomyelin 12mM): 510,93
- mean value ([1]; sphingomyelin 1,5mM): 643,44
- % of control ([1]; sphingomyelin 0,3mM): 104%
- counts ([1]; sphingomyelin 0,3mM): 675,57 and 673,54
- enzyme activity ([1]; sphingomyelin 0,3mM): 2,5788
- % of control ([1]; sphingomyelin 0,15mM): 89%
- counts ([1]; sphingomyelin 0,15mM): 579,66 and 604,24
- enzyme activity ([1]; sphingomyelin 0,15mM): 2,1969
- % of control ([1]; sphingomyelin 0,75mM): 79%
- counts ([1]; sphingomyelin 0,75mM): 541,76 and 533,32
- enzyme activity ([1]; sphingomyelin 0,75mM): 1,9454
- % of control ([1]; sphingomyelin 3mM): 100%
- counts ([1]; sphingomyelin 3mM): 699,42 and 605,31
- enzyme activity ([1]; sphingomyelin 3mM): 2,4762
- % of control ([1]; sphingomyelin 6mM): 70%
- counts ([1]; sphingomyelin 6mM): 473,49 and 513,48
- enzyme activity ([1]; sphingomyelin 6mM): 1,7418
- % of control ([1]; sphingomyelin 12mM): 74%
- counts ([1]; sphingomyelin 12mM): 489,65 and 532,21
- enzyme activity ([1]; sphingomyelin 12mM): 1,8224
- % of control ([1]; sphingomyelin 1,5mM): 98%
- counts ([1]; sphingomyelin 1,5mM): 630,13 and 656,75
- enzyme activity ([1]; sphingomyelin 1,5mM): 2,4349
- mean value ([2]; sphingomyelin 0,3mM): 195,30
- mean value ([2]; sphingomyelin 0,15mM): 206,72
- mean value ([2]; sphingomyelin 0,75mM): 206,21
- mean value ([2]; sphingomyelin 3mM): 214,01
- mean value ([2]; sphingomyelin 6mM): 208,40
- mean value ([2]; sphingomyelin 12mM): 195,24
- mean value ([2]; sphingomyelin 1,5mM): 201,66
- % of control ([2]; sphingomyelin 0,3mM): 68%
- counts ([2]; sphingomyelin 0,3mM): 187,68 and 202,92
- enzyme activity ([2]; sphingomyelin 0,3mM): 1,4089
- % of control ([2]; sphingomyelin 0,15mM): 78%
- counts ([2]; sphingomyelin 0,15mM): 215,51 and 197,93
- enzyme activity ([2]; sphingomyelin 0,15mM): 1,6200
- % of control ([2]; sphingomyelin 0,75mM): 78%
- counts ([2]; sphingomyelin 0,75mM): 206,90 and 205,52
- enzyme activity ([2]; sphingomyelin 0,75mM): 1,6106
- % of control ([2]; sphingomyelin 3mM): 85%
- counts ([2]; sphingomyelin 3mM): 225,57 and 202,45
- enzyme activity ([2]; sphingomyelin 3mM): 1,7548
- % of control ([2]; sphingomyelin 6mM): 80%
- counts ([2]; sphingomyelin 6mM): 207,54 and 209,26
- enzyme activity ([2]; sphingomyelin 6mM): 1,6511
- % of control ([2]; sphingomyelin 12mM): 68%
- counts ([2]; sphingomyelin 12mM): 189,25 and 201,23
- enzyme activity ([2]; sphingomyelin 12mM): 1,4077
- % of control ([2]; sphingomyelin 1,5mM): 74%
- counts ([2]; sphingomyelin 1,5mM): 207,84 and 195,48
- enzyme activity ([2]; sphingomyelin 1,5mM): 1,5264
Compound: sphingomyelin
